In ChEMBL document CHEMBL1131152, “In vitro and in vivo activities of oligodeoxynucleotide-based thrombin inhibitors containing neutral formacetal linkages” (J Med Chem, 1998):

Target: Prothrombin (Homo sapiens) (UniProt P00734)
Assay: Relative prothrombin time was determined as the activity of the test ODN (oligodeoxynucleotide) relative to that of GS-522

Structure (SMILES)	Relative PT
Cc1cn([C@H]2C[C@H](OCOC[C@H]3O[C@@H](n4cnc5c(=O)nc(N)[nH]c54)C[C@@H]3OP(=O)(O)OC[C@H]3O[C@@H](n4cnc5c(=O)[nH]c(=N)[nH]c54)C[C@@H]3OP(=O)(O)OC[C@H]3O[C@@H](n4cc(C)c(=O)[nH]c4=O)C[C@@H]3OCOC[C@H]3O[C@@H](n4cnc5c(=O)[nH]c(=N)[nH]c54)C[C@@H]3OP(=O)(O)OC[C@H]3O[C@@H](n4cc(C)c(=O)[nH]c4=O)C[C@@H]3OP(=O)(O)OC[C@H]3O[C@@H](n4cnc5c(=O)nc(N)[nH]c54)C[C@@H]3OP(=O)(O)OC[C@H]3O[C@@H](n4cnc5c(=O)[nH]c(=N)[nH]c54)C[C@@H]3OP(=O)(O)OC[C@H]3O[C@@H](n4cc(C)c(=O)[nH]c4=O)C[C@@H]3OP(=O)(O)OC[C@H]3O[C@@H](n4cc(C)c(=O)[nH]c4=O)C[C@@H]3OP(=O)(O)OC[C@H]3O[C@@H](n4cnc5c(=O)[nH]c(=N)[nH]c54)C[C@@H]3OP(=O)(O)OC[C@H]3O[C@@H](n4cnc5c(=O)nc(N)[nH]c54)C[C@@H]3O)[C@@H](COP(=O)(O)O[C@H]3C[C@H](n4cc(C)c(=O)[nH]c4=O)O[C@@H]3COP(=O)(O)O[C@H]3C[C@H](n4cnc5c(=O)[nH]c(=N)[nH]c54)O[C@@H]3COP(=O)(O)O[C@H]3C[C@H](n4cnc5c(=O)[nH]c(=N)[nH]c54)O[C@@H]3COP(=O)(O)O)O2)c(=O)[nH]c1=O	0.3
Cc1cn([C@H]2C[C@H](OCOC[C@H]3O[C@@H](n4cnc5c(=O)[nH]c(=N)[nH]c54)C[C@@H]3OP(=O)(O)OC[C@H]3O[C@@H](n4cnc5c(=O)nc(N)[nH]c54)C[C@@H]3O)[C@@H](COP(=O)(O)O[C@H]3C[C@H](n4cc(C)c(=O)[nH]c4=O)O[C@@H]3COP(=O)(O)O[C@H]3C[C@H](n4cnc5c(=O)[nH]c(=N)[nH]c54)O[C@@H]3COP(=O)(O)O[C@H]3C[C@H](n4cnc5c(=O)nc(N)[nH]c54)O[C@@H]3COP(=O)(O)O[C@H]3C[C@H](n4cc(C)c(=O)[nH]c4=O)O[C@@H]3COP(=O)(O)O[C@H]3C[C@H](n4cnc5c(=O)[nH]c(=N)[nH]c54)O[C@@H]3COP(=O)(O)O[C@H]3C[C@H](n4cc(C)c(=O)[nH]c4=O)O[C@@H]3COP(=O)(O)O[C@H]3C[C@H](n4cnc5c(=O)[nH]c(=N)[nH]c54)O[C@@H]3COP(=O)(O)O[C@H]3C[C@H](n4cnc5c(=O)nc(N)[nH]c54)O[C@@H]3COP(=O)(O)O[C@H]3C[C@H](n4cc(C)c(=O)[nH]c4=O)O[C@@H]3COP(=O)(O)O[C@H]3C[C@H](n4cc(C)c(=O)[nH]c4=O)O[C@@H]3COP(=O)(O)O[C@H]3C[C@H](n4cnc5c(=O)nc(N)[nH]c54)O[C@@H]3COP(=O)(O)O[C@H]3C[C@H](n4cnc5c(=O)nc(N)[nH]c54)O[C@@H]3COP(=O)(O)O)O2)c(=O)[nH]c1=O	0.6
Cc1cn([C@H]2C[C@H](OCOC[C@H]3O[C@@H](n4cnc5c(=O)nc(N)[nH]c54)C[C@@H]3OP(=O)(O)OC[C@H]3O[C@@H](n4cnc5c(=O)[nH]c(=N)[nH]c54)C[C@@H]3OP(=O)(O)OC[C@H]3O[C@@H](n4cc(C)c(=O)[nH]c4=O)C[C@@H]3OP(=O)(O)OC[C@H]3O[C@@H](n4cnc5c(=O)[nH]c(=N)[nH]c54)C[C@@H]3OP(=O)(O)OC[C@H]3O[C@@H](n4cc(C)c(=O)[nH]c4=O)C[C@@H]3OP(=O)(O)OC[C@H]3O[C@@H](n4cnc5c(=O)nc(N)[nH]c54)C[C@@H]3OP(=O)(O)OC[C@H]3O[C@@H](n4cnc5c(=O)[nH]c(=N)[nH]c54)C[C@@H]3OP(=O)(O)OC[C@H]3O[C@@H](n4cc(C)c(=O)[nH]c4=O)C[C@@H]3OP(=O)(O)OC[C@H]3O[C@@H](n4cc(C)c(=O)[nH]c4=O)C[C@@H]3OP(=O)(O)OC[C@H]3O[C@@H](n4cnc5c(=O)[nH]c(=N)[nH]c54)C[C@@H]3OP(=O)(O)OC[C@H]3O[C@@H](n4cnc5c(=O)nc(N)[nH]c54)C[C@@H]3O)[C@@H](COP(=O)(O)O[C@H]3C[C@H](n4cc(C)c(=O)[nH]c4=O)O[C@@H]3COP(=O)(O)O[C@H]3C[C@H](n4cnc5c(=O)nc(N)[nH]c54)O[C@@H]3COP(=O)(O)O[C@H]3C[C@H](n4cnc5c(=O)nc(N)[nH]c54)O[C@@H]3COP(=O)(O)O)O2)c(=O)[nH]c1=O	0.7
